Patent US20260274819A1, “ULK1 INHIBITOR, PREPARATION METHOD THEREFOR AND USE THEREOF” (DOVETREE MEDICINES UNUS, INC., priority 2023, published 2026)

Tests used:
[1] = tested on: ATG13 phosphorylation level in MIA PaCa-2 cells; assay: Inhibition of ATG13 phosphorylation level in MIA PaCa-2 cells (pATG13 ELISA); assay type: cell-based; settings: Homo sapiens, Torin1 100 nM, 24 h incubation, Phospho-Atg13 (ser355)
Description: The inhibitory effect of the compound of the present disclosure on ULK1 was evaluated by testing the inhibitory effect of the compound of the present disclosure on ATG13 phosphorylation level in MIA PaCa-2 cells.
MIA PaCa-2 cells (ATCC, CRM-CRL-1420) were cultured in a complete medium, namely, a DMEM medium (Gibco, 11965-092) containing 10% fetal bovine serum (Corning, 35-081-CV), 2.5% horse serum (Gibco, 16050-122) and 1% double antibody (Gibco, 15140-122). The experiments were performed according to the requirements of the kit (Cell Signaling Technology, 17208C).
Cell plating: MIA PaCa-2 at 80% growth confluence were digested, diluted with the complete medium, and added to a 96-well cell culture plate (Costar, 3596) at 20,000 cells per well, with a volume of 90 μL.
Compound incubation: 5 μL of Torin1 and 5 μL of a serially diluted compound were added to each well so that the highest concentration of the compound in the reaction system was 10 μM. 5-fold serial dilution with 8 concentrations was performed, and the final concentration of Torin1 was 100 nM. The DMSO content in the system was 0.1%. The reaction plate was placed in an incubator at 37° C. in 5% CO2, and was incubated for 24 h. 10 μL of Torin1 was added to the negative control wells (NC) to a final concentration of 100 nM, with a DMSO content of 0.1%.
Reaction detection: After the incubation was completed, the cell plate was washed with a pre-cooled DPBS (Corning, 21-031-CVC) to wash away the compound and medium. 50 μL of pre-cooled cell lysis solution was added to each well, incubated on ice for 10 min. The cell plate was centrifuged, and the supernatant was transferred to an ELISA reaction plate. Simultaneously, 50 μL of Phospho-Atg13 (ser355) rabbit detection antibody was added, followed by incubation at room temperature under shaking for 60 min. After the incubation was completed, the reaction plate was washed with a washing solution for 4 times. 100 μL of TMB substrate was added for color development reaction, followed by incubation under shaded conditions with shaking for 15 min. Finally, 100 μL of stop solution was added to each well. The reaction was terminated by shaking for 10 s, and the absorbance value at 450 nm and 560 nm were collected within 10 min using Envision (Perkin Elmer, EnVision 2105).
The inhibition ratio was calculated by subtracting the absorbance value at […] from the absorbance value at 450 nm for each well. The inhibition ratio formula is as follows: inhibition ratio=(sample signal value−negative control signal value)/(positive control signal value -negative control signal value)×100%.
The dose-effect curve was fitted using the log (inhibitor) vs. response -Variable slope of Graphpad Prism8, thereby affording the IC50 value of each compound for inhibiting ATG13 phosphorylation level.

[2] = tested on: HEK293 GFP-LC3 stably transfected cells; assay: Inhibition of autophagy level in HEK293 GFP-LC3 stably transfected cells (autophagic flux); assay type: cell-based; settings: Homo sapiens, Torin1 100 nM, 24 h, GFP fluorescence
Description: The inhibitory effect of the compound of the present disclosure on intracellular autophagy was evaluated by testing the impact of the compound of the present disclosure on the fluorescence intensity of HEK293 GFP-LC3 stably transfected cells.
HEK293 GFP-LC3 stably transfected cells (HEK293, ATCC, CRL-1573) were cultured in a complete medium, namely, a DMEM medium (Gibco, 11965-092) containing 10% fetal bovine serum (Corning, 35-081-CV), 1% double antibody (Gibco, 15140-122) and 1 μg/mL of Puromycin (Invitrogen-A1113803).
Cell plating: HEK293 GFP-LC3 stably transfected cells at 80% growth confluence were digested, diluted with a medium free of Puromycin, and added to a 96-well cell culture plate (Geriner, 655090) at 12,000 cells per well, with a volume of 90 μL.
Compound incubation: 5 μL of Torin1 and 5 μL of a serially diluted compound were added to each well so that the highest concentration of the compound in the reaction system was 10 μM. 3-fold serial dilution with 8 concentrations was performed, and the final concentration of Torin1 was 100 nM. The DMSO content in the system was 0.1%. The positive control wells (PC) contain DMSO at a final concentration of 0.1%, and the negative control wells (NC) contain 100 nM of Torin1 with 0.1% of DMSO. The reaction plate was placed in an incubator at 37° C. in 5% CO2, and was incubated for 24 h.
Cell staining and fixation: The cell plate was taken out, and 10 μL of Hochest33342 nuclear staining reagent (Thermo, H1399) was added to each well, followed by incubation at 37° C. in 5% CO2 for 30 min. After the incubation was completed, the cell supernatant was discarded, and 100 μL of pre-cooled 4% paraformaldehyde was added to each well to fix the cells for 15 min. Then, the fixative was discarded, and 100 μL of PBS was added to each well. Images were captured for analysis using a high-content cell imaging analyzer (PE, Operetta CLS), and GFP fluorescence signals were collected for data processing.
The average GFP fluorescence signal intensity in the reaction wells was collected for the calculation of the inhibition ratio:
The dose-effect curve was fitted using the log(inhibitor) vs. response -Variable slope of Graphpad Prism8, thereby affording the IC50 value of each compound for inhibiting autophagy level in HEK293 GFP-LC3 stably transfected cells.

[3] = target: T1, ULK1 (Homo sapiens, UniProt O75385); assay: Inhibition of ULK1 protein activity (ADP-Glo method); assay type: biochemical; settings: ULK1 enzyme, ATP and MBP substrate, 60 min room temperature
T1 construct: purchased Promega V3521
T1 sequence (O75385 1-649 limits assumed): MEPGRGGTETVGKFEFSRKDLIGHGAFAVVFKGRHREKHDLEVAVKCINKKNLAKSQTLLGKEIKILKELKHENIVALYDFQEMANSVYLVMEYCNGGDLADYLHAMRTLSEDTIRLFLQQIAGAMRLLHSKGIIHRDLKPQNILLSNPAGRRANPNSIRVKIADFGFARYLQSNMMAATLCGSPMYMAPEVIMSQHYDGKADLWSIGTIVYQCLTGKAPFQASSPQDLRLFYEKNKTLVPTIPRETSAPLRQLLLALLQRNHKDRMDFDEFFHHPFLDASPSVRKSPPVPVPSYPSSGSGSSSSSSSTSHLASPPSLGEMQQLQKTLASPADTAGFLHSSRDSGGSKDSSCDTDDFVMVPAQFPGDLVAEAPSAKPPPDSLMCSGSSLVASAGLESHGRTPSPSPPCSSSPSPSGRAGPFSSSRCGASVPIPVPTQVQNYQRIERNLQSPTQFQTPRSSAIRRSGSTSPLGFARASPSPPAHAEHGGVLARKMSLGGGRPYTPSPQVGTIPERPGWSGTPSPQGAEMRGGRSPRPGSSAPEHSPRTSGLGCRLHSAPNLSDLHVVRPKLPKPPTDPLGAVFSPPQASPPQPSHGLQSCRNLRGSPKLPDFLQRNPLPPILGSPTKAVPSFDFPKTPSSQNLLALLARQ
Description: In this experiment, the inhibitory effect of a compound on the phosphorylation function of ULK1 was detected by ADP-Glo method. The inhibitory effect of the compound of the present disclosure on the ULK1 target was evaluated based on IC50.
Compound formulation: Using an ECHO (Beckman, ECHO650), the compound was serially diluted 3-fold in DMSO in a 384-well plate (PE, 6007290). A total of 10 concentration points were set, with the maximum concentration of the compound being 10 μM, and 50 nL per well. Positive control wells and negative control wells were added with 50 nL DMSO, respectively.
Reaction process: A 32 nM of ULK1 (Promega, V3521) solution was formulated, and 2.5 μL/well was transferred to the compound test wells and the negative control wells (NC). 2.5 μL/well of 1× Assay buffer was added to the positive control wells (PC). A mixed solution of 100 μM of ATP and 1.86 μM of MBP was formulated, and 2.5 μL/well was transferred to the reaction plate. After centrifugation, the reaction was initiated and incubated at room temperature for 60 min. After the reaction was completed, 5 μL/well of ADP-Glo Reagent (Promega, V9102) was added to the reaction plate. After centrifugation, the reaction was incubated at room temperature for 40 minutes. Finally, 10 μL/well of Kinase Detection Buffer was added, followed by centrifugation and incubation at room temperature for 30 min. The chemiluminescence value was read using Envision (PE, Envision2105).
Assay buffer: a reaction buffer; and Kinase Detection buffer: a detection buffer, both were taken from the ADP-Glodetection kit, purchased from Promega, model V9102. 3. Data analysis
The inhibition ratio of a compound on ULK1 activity was calculated using the following formula:
Inhibition ratio=(sample signal value−negative control signal value)/(positive control signal value−negative control signal value)×100%. The dose-effect curve was fitted using the log(inhibitor) vs. response -Variable slope of the analysis software GraphPad Prism 8, thereby affording the IC50 value of each compound for enzyme activity.

Row | Structure (SMILES) | IC50 [1] [nM] | IC50 [3] [nM] | IC50 [2] [nM]
1 | CN1CCN(c2ccc(Nc3ncc(C(F)(F)F)c(OCCCn4cccn4)n3)c(C3CC3)c2)CC1 [Example 29] | 100 to 1000 | < 100 | 100 to 1000
2 | CN1CCN(c2ccc(Nc3ncc(C(F)(F)F)c(N4CCC5(CCN(C)CC5)CC4)n3)c(C3CC3)c2)CC1 [Example 51] | > 1000 | < 100 | 100 to 1000
3 | CN1CCN(c2ccc(Nc3ncc(C(F)(F)F)c(OCCCN4CCCCC4=O)n3)c(C3CC3)c2)CC1 [Example 1] | 100 to 1000 | < 100 | 100 to 1000
4 | CN1CCN(c2ccc(Nc3ncc(C(F)(F)F)c(N[C@H]4CC[C@@H](n5cccn5)CC4)n3)c(C3CC3)c2)CC1 [Example 32] | 100 to 1000 | < 100 | > 1000
5 | CN1CCN(c2ccc(Nc3ncc(C(F)(F)F)c(N4CC5(CN(C)C5)C4)n3)c(C3CC3)c2)CC1 [Example 24] | 100 to 1000 | < 100 | 100 to 1000
6 | CN1CCN(c2ccc(Nc3ncc(C(F)(F)F)c(N4CCC5(CCN(C)C5)CC4)n3)c(C3CC3)c2)CC1 [Example 19] | > 1000 | < 100 | 100 to 1000
7 | CN1CCN(c2ccc(Nc3ncc(C(F)(F)F)c(N4CCC5(CCN(C)CC5)C4)n3)c(C3CC3)c2)CC1 [Example 53] | 100 to 1000 | < 100 | > 1000
8 | CN1CCN(c2ccc(Nc3ncc(C(F)(F)F)c(N4CCN(C)C(=O)C4)n3)c(C3CC3)c2)CC1 [Example 5] | > 1000 | < 100 | > 1000
9 | CN1CCN(c2ccc(Nc3ncc(C(F)(F)F)c(N4CCC5(CCN(C)C5)C4)n3)c(C3CC3)c2)CC1 (stereo not drawn) [Example 26] | 100 to 1000 | < 100 | > 1000
10 | CN1CCN(c2ccc(Nc3ncc(C(F)(F)F)c(NCCCn4cccn4)n3)c(C3CC3)c2)CC1 [Example 30] | > 1000 | < 100 | > 1000

The next lines start with results.

Row | IC50 [1] [nM] | IC50 [3] [nM] | Structure (SMILES) | IC50 [2] [nM]
11 | > 1000 | < 100 | CN1CCN(c2ccc(Nc3ncc(C(F)(F)F)c(NC4CCN(C(=O)C5CCC5)CC4)n3)c(C3CC3)c2)CC1 [Example 20] | > 1000
12 | < 100 | < 100 | CN1Cc2cc(Nc3ncc(C(F)(F)F)c(OCCCN4CCCCC4=O)n3)ccc2C2(CC2)C1 [Example 49] | < 100
13 | 100 to 1000 | < 100 | CN1CCc2cc(Nc3ncc(C(F)(F)F)c(N4CCN(C)C(=O)C4)n3)ccc2C1 [Example 15] | 100 to 1000
14 | < 100 | < 100 | CN1CCN(c2ccc(Nc3ncc(C(F)(F)F)c(N4CCC(n5cccn5)CC4)n3)c(C3CC3)c2)CC1 [Example 14] | > 1000
